Data set [1] has as its system patient with acetylcholine receptor antibody positive myasthenia gravis. The experiment in a line: Treatment of a person suffering from myasthenia gravis with cladribine (single patient; clinical rating scales and tolerability). It is filed as in vivo, human. The protocol:
A patient with existing, acetylcholine receptor antibody positive myasthenia gravis (MG) diagnosed.
They received 20 mg cladribine, administered by subcutaneous injection of 2.5 mg cladribine in 2.5 ml in each of four limbs (total 10 mg), on each of two consecutive days. This total dose of 20 mg is markedly less than the total doses of 200-400 mg given in recent multiple sclerosis trials. Clinical assessment using two scales was performed one week before initiation of cladribine administration, and three months after first cladribine administration. The treatment with oral steroids and pyridostigmine remained stable over observation period.
The two scales used were:
• Myasthenia Gravis Composite Scale (Burns T et al. Neurology 74:1434-40 (2010) • Myasthenia Gravis Activities of Daily Living (Wolfe G et al. Neurology 52: 1487-89 (1999)

Data set [2] concerns the target A2A (adenosine receptor class 2a) (Homo sapiens, UniProt P29274). As to conditions: cited from earlier work.
For data set [3], the system named is human lymphocytes. As to conditions: phosphorylation by CK blocked, lymphocyte death does not occur; cited from earlier work.
Data set [4] concerns multiple sclerosis (MS) patients. As to conditions: 3.5 mg/kg and 5.25 mg/kg by oral tablets; cited from earlier work.
The test system of data set [5] is patient with IgM associated inflammatory peripheral neuropathy. As to conditions: intravenous, approximately 100 mg cumulative dose; cited from earlier work.
Where [6] appears, read: 3 months post vs pre-cladribine.

Sequence of A2A (adenosine receptor class 2a) (P29274 whole entry): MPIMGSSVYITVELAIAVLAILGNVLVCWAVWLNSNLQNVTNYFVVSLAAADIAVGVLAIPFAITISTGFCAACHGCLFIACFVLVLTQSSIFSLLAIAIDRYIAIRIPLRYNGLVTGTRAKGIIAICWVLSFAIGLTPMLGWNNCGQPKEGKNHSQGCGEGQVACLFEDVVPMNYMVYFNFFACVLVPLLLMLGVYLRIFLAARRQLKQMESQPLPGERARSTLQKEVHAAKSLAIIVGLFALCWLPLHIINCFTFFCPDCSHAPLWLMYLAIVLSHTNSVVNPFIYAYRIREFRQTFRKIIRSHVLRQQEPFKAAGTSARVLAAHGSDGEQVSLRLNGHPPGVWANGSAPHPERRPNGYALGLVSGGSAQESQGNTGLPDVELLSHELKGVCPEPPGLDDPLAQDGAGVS

`Cn1cnc([N+](=O)[O-])c1Sc1ncnc2nc[nH]c12` [azathioprine]: the “Tolerability of prior azathioprine treatment” value in data set [1] (same MG patient, before cladribine, stopped after 1 week of treatment) is “severe intolerance due to nausea and vomiting”.

On to `Nc1nc(Cl)nc2c1ncn2[C@H]1C[C@H](O)[C@@H](CO)O1` [cladribine, 2-chloro-2′-deoxyadenosine], for which, in data set [1] (20 mg total s.c. (10 mg on each of two consecutive days), 3 months after first administration, pre-cladribine score 31), the “MG Composite Scale score, 3 months post-cladribine” value turned out to be 6. The “MG Activities of Daily Living score, 3 months post-cladribine” value in data set [1] (20 mg total s.c., 3 months after first administration, pre-cladribine score 19) is 8. Besides, in data set [1] (20 mg total s.c., MG patient), the “Adverse events considered possible side effects of cladribine” value was “did not experience any adverse events” and the “Transient worsening of signs after treatment initiation” value is reported as “did not produce a transient worsening of signs”. Moreover, in data set [1] (setting [6]), the “Improvement on the MG Activities of Daily Living scale” value was found to be 11 point and the “Improvement on the MG Composite Scale” value was 25 point. Also, the “Durability of clinical improvement after the 3 month assessment” value in data set [1] (MG patient, led to gradual withdrawal of baseline treatment) is “sustained over the following seven months”. For the same compound, in data set [1] (after a short period of treatment), the “Period of beneficial effects on the disease without frequent retreatment” value is “over 10 months”. Also, in data set [2], the “Affinity at A2A receptors” value is reported as “high affinity”. In data set [3], the Induced cytokine production entry is listed as “decreased”. Besides, the “Clinical outcome in MS (relapses, disability, MRI disease activity)” value in data set [4] is “fewer relapses, less disability, and less disease activity”. Further, the “Clinical outcome in IgM associated inflammatory peripheral neuropathy” value in data set [5] is “symptomatic improvement and reduced levels of pathogenic antibodies”.

Source of the values: patent US12171775B2, “Use of cladribine for treating autoimmune neuromuscular disease” (priority 2017, dated 2024).
